Common to all, as to format: biochemical
The target in assay [1] is T1, PRMT5 (Homo sapiens, UniProt O14744).
T1 construct: purchased Viva (custom protein)
In words: PRMT5 IC50 assay with no cofactor. The source says:
(§1) Table 1a indicates IC50 values (μM) against PRMT5 for exemplary compounds in the presence of SAM as cofactor, with no cofactor and with MTA as cofactor, respectively (columns 3-5). […] The Ki values can be calculated from the IC50 values as described in the Examples section. As detailed in the Examples section, for the assay performed in the presence of SAM, IC50=Ki×1.5 (Ki=IC50/1.5). For the assay performed in the presence of MTA, IC50=Ki×13.5 (Ki=IC50/13.5). Column 6 indicates the ratio between the Ki of compounds in the presence of SAM and the Ki of compounds in the presence of MTA

Assay [2] addresses T1, PRMT5. The experiment in a line: PRMT5 IC50 assay in the presence of SAM as cofactor.
Excerpt: as §1

The target of assay [3] is T1, PRMT5. The experiment in a line: PRMT5 IC50 assay in the presence of MTA as cofactor. The following applies: for pIC50: PRMT5, MTA as cofactor.
Excerpt: as §1

[4] abbreviates: ratio between the Ki in the presence of SAM and the Ki in the presence of MTA.
The mark [5] stands for this setting: ratio between Ki in the presence of SAM and Ki in the presence of MTA.

The structures appear in SMILES notation. pIC50: −log10 of the molar value.

T1 sequence (O14744 whole entry): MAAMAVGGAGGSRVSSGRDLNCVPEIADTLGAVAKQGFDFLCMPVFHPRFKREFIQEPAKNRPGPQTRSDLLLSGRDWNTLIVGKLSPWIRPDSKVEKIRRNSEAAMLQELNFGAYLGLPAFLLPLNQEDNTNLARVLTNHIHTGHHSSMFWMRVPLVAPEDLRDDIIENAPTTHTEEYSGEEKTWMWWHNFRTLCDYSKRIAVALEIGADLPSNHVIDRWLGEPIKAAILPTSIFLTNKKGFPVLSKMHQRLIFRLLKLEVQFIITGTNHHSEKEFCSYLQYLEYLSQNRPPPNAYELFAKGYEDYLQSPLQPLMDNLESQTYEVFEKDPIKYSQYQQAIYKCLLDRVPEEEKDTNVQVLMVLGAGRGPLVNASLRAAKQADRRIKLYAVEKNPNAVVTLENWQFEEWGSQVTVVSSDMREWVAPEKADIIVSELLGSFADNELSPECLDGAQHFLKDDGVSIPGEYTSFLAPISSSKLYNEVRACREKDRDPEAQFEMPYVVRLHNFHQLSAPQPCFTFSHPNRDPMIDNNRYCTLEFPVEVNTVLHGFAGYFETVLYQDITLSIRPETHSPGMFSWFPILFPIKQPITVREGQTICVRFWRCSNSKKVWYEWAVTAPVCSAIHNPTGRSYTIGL
T1 sequence (Q9BQA1 whole entry partner): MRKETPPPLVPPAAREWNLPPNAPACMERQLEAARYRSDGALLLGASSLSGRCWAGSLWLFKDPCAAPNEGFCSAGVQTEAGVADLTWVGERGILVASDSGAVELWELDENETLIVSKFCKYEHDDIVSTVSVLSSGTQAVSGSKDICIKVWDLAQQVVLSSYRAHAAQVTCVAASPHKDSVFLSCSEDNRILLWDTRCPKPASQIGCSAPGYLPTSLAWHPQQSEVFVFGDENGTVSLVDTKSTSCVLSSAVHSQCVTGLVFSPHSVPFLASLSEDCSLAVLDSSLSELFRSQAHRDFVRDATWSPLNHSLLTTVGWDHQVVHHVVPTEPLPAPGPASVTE

With `Cc1c(OCc2cnco2)ccc2c1CCN(C[C@@H](O)CNC(=O)c1cccc(NC3CCOCC3)c1)C2` [Compound 548, N-[(2S)-2-hydroxy-3-{5-methyl-6-[(1,3-oxazol-5-yl)methoxy]-1,2,3,4-tetrahydroisoquinolin-2-yl}propyl]-3-[(oxan-4-yl)amino]benzamide], the negative logarithm of the IC50 (pIC50) (commonly the IC50 on a negative log10 scale, so that one unit is a factor of ten) in assay [1] was at most 5.30; in assay [2], 5.30 to 6.30; in assay [3] it was 5.30 to 6.30. In addition, the “SAM/MTA Ratio” value in assay [3] (setting [4]) was “A (a Ki ratio greater than or equal to 10 fold between the Ki in the presence of SAM and the Ki in the presence of MTA)”.
On to `Cc1c(OCc2ccnn2C)ccc2c1CCN(C[C@@H](O)CNC(=O)c1cc(NC3CCC3)ccn1)C2` [Compound 521, (S)-4-(cyclobutylamino)-N-(2-hydroxy-3-(5-methyl-6-((1-methyl-1H-pyrazol-5-yl)methoxy)-3N-dihydroisoquinolin-2(1H)-yl)propyl)picolinamide], for which the pIC50 in assay [1] was at most 5.30; in assay [2] it was 5.30 to 6.30; in assay [3], 5.30 to 6.30. In assay [3] (setting [4]), the “SAM/MTA Ratio” value was “A (a Ki ratio greater than or equal to 10 fold between the Ki in the presence of SAM and the Ki in the presence of MTA)”.
As to `O=C(NC[C@H](O)CN1CCc2c(ccc(OCc3cnco3)c2Cl)C1)c1cc(NC2CCC2)ncn1` [Compound 508, (S)—N-(3-(5-chloro-6-(oxazol-5-ylmethoxy)-3,4-dihydroisoquinolin-2(1H)-yl)-2-hydroxypropyl)-6-(cyclobutylamino)pyrimidine-4-carboxamide], the values for the pIC50 in assay [1], in assay [2] and in assay [3] were at most 5.30, 5.30 to 6.30 and 6.30 to 7.30, respectively. Further, in assay [3] (setting [4]), the “SAM/MTA Ratio” value was “A (a Ki ratio greater than or equal to 10 fold between the Ki in the presence of SAM and the Ki in the presence of MTA)”.
With `Cc1ncoc1COc1ccc2c(c1)CCN(C[C@@H](O)CNC(=O)c1cc(NC3CCC3)nc(N3CCCCC3)c1)C2` [Compound 633, 2-(cyclobutylamino)-N-[(2S)-2-hydroxy-3-{6-[(4-methyl-1,3-oxazol-5-yl)methoxy]-1,2,3,4-tetrahydroisoquinolin-2-yl}propyl]-6-(piperidin-1-yl)pyridine-4-carboxamide], the pIC50 in assay [1] (read-out: No Co-factor IC50) was at most 5.30; in assay [2] it was 5.30 to 6.30; in assay [3], 6.30 to 7.30. In addition, in assay [3] (setting [5]), the “SAM/MTA Ratio” value is “A (a Ki ratio greater than or equal to 10 fold between the Ki in the presence of SAM and the Ki in the presence of MTA)”.
`COCC(=O)N1CC(Nc2cc(C(=O)NC[C@H](O)CN3CCc4c(ccc(OCc5cnco5)c4C)C3)ncn2)C1` [Compound 518, N-[(2S)-2-hydroxy-3-{5-methyl-6-[(1,3-oxazol-5-yl)methoxy]-1,2,3,4-tetrahydroisoquinolin-2-yl}propyl]-6-{[1-(2-methoxyacetyl)azetidin-3-yl]amino}pyrimidine-4-carboxamide]: the figures for the pIC50 in assay [1], in assay [2] and in assay [3] were at most 5.30, 5.30 to 6.30 and 5.30 to 6.30, respectively. For the same molecule, the “SAM/MTA Ratio” value in assay [3] (setting [4]) is “A (a Ki ratio greater than or equal to 10 fold between the Ki in the presence of SAM and the Ki in the presence of MTA)”.
As to `Cc1ncoc1COc1ccc2c(c1)[C@@H](O)CN(C[C@@H](O)CNC(=O)c1ccnc(NC3CCC3)c1)C2` (single isomer, unassigned) [Compound 505], the results for the pIC50 in assay [1], in assay [2] and in assay [3] were at most 5.30, 5.30 to 6.30 and 5.30 to 6.30, respectively. For the same molecule, the “SAM/MTA Ratio” value in assay [3] (setting [4]) is “A (a Ki ratio greater than or equal to 10 fold between the Ki in the presence of SAM and the Ki in the presence of MTA)”.
`Cc1c(OCc2cnco2)ccc2c1CCN(C[C@@H](O)CNC(=O)c1cncc(NC3CCOC3)c1)C2` (stereo partly shown) [Compound 510]: the pIC50 was at most 5.30 in assay [1], 5.30 to 6.30 in assay [2] and 6.30 to 7.30 in assay [3]. For the same molecule, the “SAM/MTA Ratio” value in assay [3] (setting [4]) is “A (a Ki ratio greater than or equal to 10 fold between the Ki in the presence of SAM and the Ki in the presence of MTA)”.
Consider `Cc1c(OCc2ccnn2C)ccc2c1CCN(C[C@@H](O)CNC(=O)c1ccnc(NC3CCC3)c1)C2` [Compound 161, 2-(cyclobutylamino)-N-[(2S)-2-hydroxy-3-[5-methyl-6-[(2-methylpyrazol-3-yl)methoxy]-3,4-dihydro-1H-isoquinolin-2-yl]propyl]pyridine-4-carboxamide], for which the results for the pIC50 in assay [1] (read-out: No Co-factor IC50), in assay [2] and in assay [3] were at most 5.30, 5.30 to 6.30 and 5.30 to 6.30, respectively. The “SAM/MTA Ratio” value in assay [3] (setting [5]) is “A (a Ki ratio greater than or equal to 10 fold between the Ki in the presence of SAM and the Ki in the presence of MTA)”.
Take `CCCN(C)c1cc(C(=O)NC[C@H](O)CN2CCc3cc(OCc4ocnc4C)ccc3C2)cc(NC2CCC2)n1` [Compound 553, 2-(cyclobutylamino)-N-[(2S)-2-hydroxy-3-{6-[(4-methyl-1,3-oxazol-5-yl)methoxy]-1,2,3,4-tetrahydroisoquinolin-2-yl}propyl]-6-[methyl(propyl)amino]pyridine-4-carboxamide]: the pIC50 is at most 5.30 in assay [1], 5.30 to 6.30 in assay [2] and 6.30 to 7.30 in assay [3]. The “SAM/MTA Ratio” value in assay [3] (setting [4]) was “A (a Ki ratio greater than or equal to 10 fold between the Ki in the presence of SAM and the Ki in the presence of MTA)”.
For `CC(=O)N1CC(Nc2cc(C(=O)NC[C@H](O)CN3CCc4c(ccc(OCc5cnco5)c4C)C3)ncn2)C1` [Compound 543, 6-[(1-acetylazetidin-3-yl)amino]-N-[(2S)-2-hydroxy-3-{5-methyl-6-[(1,3-oxazol-5-yl)methoxy]-1,2,3,4-tetrahydroisoquinolin-2-yl}propyl]pyrimidine-4-carboxamide], the negative-log IC50 (pIC50) is at most 5.30 in assay [1], 5.30 to 6.30 in assay [2] and 5.30 to 6.30 in assay [3]. In addition, the “SAM/MTA Ratio” value in assay [3] (setting [4]) is “A (a Ki ratio greater than or equal to 10 fold between the Ki in the presence of SAM and the Ki in the presence of MTA)”.
With `Cc1c(OCc2cnco2)ccc2c1CCN(C[C@@H](O)CNC(=O)c1cc(NC3CN(C(=O)CC(C)C)C3)ncn1)C2` [Compound 565, N-[(2S)-2-hydroxy-3-{5-methyl-6-[(1,3-oxazol-5-yl)methoxy]-1,2,3,4-tetrahydroisoquinolin-2-yl}propyl]-6-{[1-(3-methylbutanoyl)azetidin-3-yl]amino}pyrimidine-4-carboxamide], the pIC50 in assay [1] is at most 5.30; in assay [2], 5.30 to 6.30; in assay [3], 5.30 to 6.30. Besides, the “SAM/MTA Ratio” value in assay [3] (setting [4]) was “A (a Ki ratio greater than or equal to 10 fold between the Ki in the presence of SAM and the Ki in the presence of MTA)”.
`O=C(NC[C@H](O)CN1CCc2c(ccc(OCc3cnco3)c2Br)C1)c1cc(NC2CCCCC2)ncn1` [Compound 377, (S)—N-(3-(5-bromo-6-(oxazol-5-ylmethoxy)-3A-dihydroisoquinolin-2(1H)-yl)-2-hydroxypropyl)-6-(cyclohexylamino)pyrimidine-4-carboxamide]: the pIC50 in assay [1] (read-out: No Co-factor IC50) was at most 5.30; in assay [2], 5.30 to 6.30; in assay [3], 5.30 to 6.30. In addition, the “SAM/MTA Ratio” value in assay [3] (setting [5]) is “A (a Ki ratio greater than or equal to 10 fold between the Ki in the presence of SAM and the Ki in the presence of MTA)”.
As for `O=C1N[C@H]2[C@H](CS[C@H]2CCCCC(=O)N2CCC(Nc3cc(C(=O)NC[C@H](O)CN4CCc5cc(OCc6cnco6)ccc5C4)ncn3)CC2)N1` [Compound 265], the negative logarithm of the IC50 (pIC50) was 5.30 to 6.30 in assay [1] (read-out: No Co-factor IC50), 6.30 to 7.30 in assay [2] and over 7.30 in assay [3]. The “SAM/MTA Ratio” value in assay [3] (setting [5]) is “A (a Ki ratio greater than or equal to 10 fold between the Ki in the presence of SAM and the Ki in the presence of MTA)”.

Source of the values: US11986471B2, “Compounds and methods of use” (Tango Therapeutics, Inc., priority 2018, dated 2024).
